Here are results for two compounds from patent US20120288604A1, “Organic Compounds” (Givaudan S.A., priority 2009, published 2012).

For assay [1] the following is noted: Tsuzuki et al, J. of chemical and engineering data (1971), 16(1), 108-11; cited from earlier work.
Assay [2] relates to panel of 15 subjects all of whom were sweet sensitive. As to the kind of experiment: Comparative sensory ranking of sucrose solutions against 7% sucrose + para-ethoxy benzonitrile (R-index analysis). The class given is in vivo. How it is done:
The test samples (“Test”) contained 7% sucrose and 20 ppm of para-ethoxy benzonitrile in water. The test samples were compared with control samples containing 7, 8, 9, and 10% sucrose in water. The sensory evaluations were conducted as follows. All samples were presented at ambient temperature in 15 ml aliquots at random to a panel of 15 subjects all of whom were sweet sensitive of varying sensitivity. After tasting each sample, the mouth was rinsed thoroughly with water at ambient temperature prior to tasting the next sample. The tastings were carried out in two replications in one session. Panelists were asked to rank the solutions whilst wearing nose plugs. They were asked to rank from least sweet to most sweet.
(§1) The data were subjected to an R-Index analysis. […] An R-index from 50% to the critical value means the sweetness enhancer sample has an equivalent sweetness to the compared sucrose sample.

For assay [3] the test system is unchanged. As to the kind of experiment: Sensory ranking to find the sucrose concentration iso-intense to aqueous para-ethoxy benzonitrile (R-index analysis). The class given is in vivo. How it is done:
The test samples contained para-ethoxy benzonitrile in water. The control samples were aqueous solutions of sucrose at 0.5%, 1.0%, 1.5% and 2.0%. The sensory evaluations were conducted as follows. All samples were presented at ambient temperature in 15 ml aliquots at random to a panel of 15 subjects all of whom were sweet sensitive of varying sensitivity. After tasting each sample, panelists rinsed their mouths thoroughly with water at ambient temperature prior to tasting subsequent samples. The tastings were carried out in two replications in one session. Panelists were asked to rank the solutions whilst wearing nose plugs. They were asked to rank from least sweet to most sweet.
as §1

Regarding `CCOc1ccc(C#N)cc1` [ethoxy benzonitrile], in assay [1], the taste as described result is on record as “sweet or sweetish”.

With `CCOc1ccc(C#N)cc1` [para-ethoxy benzonitrile], the “sweetness enhancement (additive or synergistic)” value in assay [2] (20 ppm in 7% sucrose, Examples 1 and 2 taken together) was “synergistic effect”. Moreover, the “iso-sweet sucrose, by interpolation” value in assay [2] (Test (7% sucrose + 20 ppm in water)) came out at 8.5%. Also, the “Significantly different (p < 0.05)” value in assay [2] (Test (7% sucrose + 20 ppm in water) vs. 7% sucrose) was “Yes”; in assay [2] (Test (7% sucrose + 20 ppm in water) vs. 8% sucrose) it was “Yes”; in assay [2] (Test (7% sucrose + 20 ppm in water) vs. 9% sucrose) it was “Yes”; in assay [2] (Test (7% sucrose + 20 ppm in water) vs. 10% sucrose) it was “Yes”; in assay [3] (10 ppm in water vs. 0.5% sucrose) it was “No”; in assay [3] (20 ppm in water vs. 0.5% sucrose) it was “Yes”. In addition, in assay [3] (20 ppm in water vs. 1.0% sucrose), the “Significantly different (p < 0.05)” value is recorded as “Yes”. Besides, the R-index was 95% in assay [2] (Test (7% sucrose + 20 ppm in water) vs. 7% sucrose, critical value 64.61%); 73% in assay [2] (Test (7% sucrose + 20 ppm in water) vs. 8% sucrose, critical value 64.61%); 28% in assay [2] (Test (7% sucrose + 20 ppm in water) vs. 9% sucrose, critical value 35.39%); 10% in assay [2] (Test (7% sucrose + 20 ppm in water) vs. 10% sucrose, critical value 35.39%); 51% in assay [3] (10 ppm in water vs. 0.5% sucrose, critical value 64.61%); 81% in assay [3] (20 ppm in water vs. 0.5% sucrose, critical value 64.61%). In assay [3] (20 ppm in water vs. 1.0% sucrose, critical value 35.39%), the R-index was determined as 30%. Moreover, the “iso-sweet sucrose expected were the effect merely additive” value in assay [2] (Test (7% sucrose + 20 ppm in water), from the data of Example 1) came to 7.75%. Besides, the “perceived sweetness relative to sucrose” value in assay [2] (Test (7% sucrose + 20 ppm) vs. 7 and 8% sucrose solutions) was “significantly sweeter”; in assay [2] (Test (7% sucrose + 20 ppm) vs. 9% and 10% sucrose) it was “less sweet”; in assay [3] (20 ppm solution vs. 0.5% sucrose), “significantly sweeter”; in assay [3] (20 ppm solution vs. 1% sucrose), “significantly less sweet”. In assay [3] (10 ppm solution in water), the “iso sweet sucrose solution” value stood at 0.5%. Besides, the “iso-sweet sucrose solution, by interpolation” value in assay [3] (20 ppm solution in water) stood at 0.75%.
